From US7807672B2, “Compounds that are ERK inhibitors” (Schering Corporation, priority 2006, dated 2010)
pIC50: −log10 of the molar value.

Biological target: fully phosphorylated, active Mouse ERK2 protein (Mus musculus, UniProt P63085)
Assay: Active ERK2 assay (AERK2), IMAP format
Assay type: biochemical
Details: activated ERK2, IMAP fluorescence polarization, 30 μM ATP
Description: 14 μl of kinase buffer (10 mM Tris.HCl pH 7.2, 10 mM MgCl2, 0.01% Tween-20, 1 mM DTT) containing 0.4 ng unphosphorylated Mouse ERK2 protein was added to each well of a black 384-well assay plate. […] DMSO concentration during initial incubation is 6.7%. […] DMSO concentration during ERK activation was 4%. After one hour, reactions were terminated by addition of 60 μl IMAP detections beads in binding buffer (Molecular Devices). Binding was allowed to equilibrate for 30 minutes before reading the plate on an LJL Analyst Fluorescence Polarization plate reader.
Activated ERK2 activity was also determined in the IMAP assay format using the procedure outlined above. […] Reactions proceeded for 30 minutes before termination by addition of 60 μl IMAP detection beads in binding buffer. Plates were read as above after 30 minute binding equilibration.

fully phosphorylated, active Mouse ERK2 protein, sequence (P63085 whole entry): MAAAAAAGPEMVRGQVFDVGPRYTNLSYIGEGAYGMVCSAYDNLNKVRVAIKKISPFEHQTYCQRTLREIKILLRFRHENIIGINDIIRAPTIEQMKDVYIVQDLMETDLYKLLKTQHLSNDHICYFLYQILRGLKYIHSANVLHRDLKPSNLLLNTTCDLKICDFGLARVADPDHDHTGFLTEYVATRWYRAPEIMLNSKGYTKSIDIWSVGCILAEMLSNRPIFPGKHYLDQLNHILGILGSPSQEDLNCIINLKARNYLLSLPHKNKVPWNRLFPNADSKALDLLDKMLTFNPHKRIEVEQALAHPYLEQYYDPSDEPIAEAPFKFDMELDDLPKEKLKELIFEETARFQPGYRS

Row | SMILES | pIC50
1 | O=C(Nc1ccc(O)c(C(F)(F)F)c1)[C@@H]1CCN(CC(=O)N2CCN(c3ccc(-c4ncccn4)cc3)CC2)C1 [Example 1] | 7.12
2 | O=C(Nc1ccc(O)c(Cl)c1)[C@@H]1CCN(CC(=O)N2C[C@@H]3C[C@H]2CN3c2ccc(-c3ncccn3)cc2)C1 [Example 19] | 7.47
3 | CC(=O)c1cnc(-c2ccc(N3CCN(C(=O)CN4CC[C@@H](C(=O)Nc5ccc(O)c(Cl)c5)C4)CC3)cc2)nc1 [Example 20] | 7.36
4 | C/C(=N\O)c1cnc(-c2ccc(N3CCN(C(=O)CN4CC[C@@H](C(=O)Nc5ccc(O)c(Cl)c5)C4)CC3)cc2)nc1 [Example 23] | 7.24

Further lines, results first:

Row | pIC50 | SMILES
5 | 7.74 | CO/N=C(\C)c1cnc(-c2ccc(N3CCN(C(=O)CN4CC[C@@H](C(=O)Nc5ccc(O)c(Cl)c5)C4)CC3)cc2)nc1 [Example 25]
6 | 7.41 | O=C(Nc1ccc(O)c(C2CC2)c1)[C@@H]1CCN(CC(=O)N2CCN(c3ccc(-c4ncccn4)cc3)CC2)C1 [Example 119]
7 | 7.42 | CC(C)c1cc(NC(=O)[C@@H]2CCN(CC(=O)N3C[C@@H]4C[C@H]3CN4c3ccc(-c4ncccn4)cc3)C2)ccc1O [Example 196]
8 | 7.40 | CC(C)c1cc(NC(=O)[C@@H]2CCN(CC(=O)N3C[C@@H]4C[C@H]3CN4c3ccc(-c4cnccn4)cc3)C2)ccc1O [Example 197]
9 | 7.28 | O=C(Nc1ccc(O)c(-c2ccc(F)cc2)c1)[C@@H]1CCN(CC(=O)N2CCN(c3ccc(-c4ncccn4)cc3)CC2)C1 [Example 212]
